Results as given in patent US9133199B2, “Pyrimidine derivatives as protein kinase inhibitors” (Cyclacel Limited, priority 2007, dated 2015).
Where a name gives a salt, the structure may show the parent alone. Read-outs that look alike come from different tables or passages of the source.

Tests used:
PLK2 = PLK2 (Homo sapiens (Human), UniProt Q9NYY3); test: PLK selectivity: PLK2 inhibition; type: biochemical; conditions: for PLK2 IC50/PLK1 IC50: selectivity ratio
PLK3 = PLK3 (Homo sapiens (Human), UniProt Q9H4B4); test: PLK selectivity: PLK3 inhibition; type: biochemical; conditions: for PLK3 IC50/PLK1 IC50: selectivity ratio
human PLK1 = human PLK1 (Homo sapiens (Human), UniProt P53350); test: PLK1 protein kinase assay (CDC25C phosphorylation, [γ-32P]-ATP); type: biochemical
From the text: A full-length human CDC25C clone was isolated by PCR from HeLa mRNA and was inserted on a BamHI-HindIII fragment into pRsetA. The amino terminal fragment of CDC25C (encoding residues 1-300) was excised from this vector and inserted into pET28a (between the NcoI and BamHI sites). Expression was under the control of the T7 promoter, and the encoded protein contained a His6 tag at the carboxyl terminus. The vector was transformed into E. coli strain BRL(DE3) pLysS for expression experiments. CDC25C was expressed in BL21(DE3) RIL bacteria cells, grown in LB media at 37° C. until OD600 nm of 0.6 was reached. The expression was induced with 1 mM IPTG and the bacterial culture was grown further for 3 h. The bacteria were harvested by centrifugation and the cell pellet was re-suspended in 50 mM Tris pH 7.5 and 10% sucrose, flash frozen, and stored at −70° C. until used. CDC25C protein was purified from E. coli inclusion bodies. The inclusion bodies were isolated in a buffer (50 mM Tris pH 8.0, 2 mM EDTA, 100 mM NaCl, 0.5% triton X-100). After denaturation in the presence of 6 M urea, the protein was refolded via slow dialysis of the urea. The protein was stored in 25 mM Tris pH 8.0, 100 mM NaCl, 1 mM DTT, 1 mM EDTA and 10% glycerol at −70° C. until used.
The 3′ primer ([sequence]) incorporated a stop codon prior to the EcoR1 site. The PCR product was cloned into the Nhe1/EcoR1 sites of a baculovirus expression vector, pSSP1. […] Sf9 cells of a passage number less than 20 were split back to give a 300 mL culture volume, at a cell density of 1.5×10^6 cells/mL. Cells were only used for expression in logarithmic growth phase. PLK1 baculovirus (from P2 amplification) was added to give a multiplicity of infection of 3, this is equivalent to 3 virus particles for each insect cell. The flasks were incubated at 27° C., with shaking at 100 r.p.m. for 48 h. On harvest, cell density and viability was determined, the cultures spun down at 2500 r.p.m. for 5 min and washed with ice-cold phosphate-buffered saline. The wash was re-spun at the same speed and the pellet was snap frozen. PLK1 protein was purified on a metal affinity column.
PLK1 protein kinase assays were carried out using a 96−well plate format by incubating CDC25C (2 μg/well) with PLK1 (1 μg/well) in 20 mM Tris/HCl buffer pH 7.5, supplemented with 25 mM β-glycerophosphate, 5 mM EGTA, 1 mM DTT and 1 mM NaVO3. Serial dilutions of test compound in assay buffer were added. Reaction was initiated by the addition of 100 μM ATP and 0.5 μCi of [γ-^32P]-ATP. The reaction mixture was incubated at 30° C. for 1 h, then stopped with 75 mM aq orthophosphoric acid, transferred onto a 96-well P81 filter plate (Whatman), dried, and the extent of CDC25C phosphorylation was assessed by scintillation counting using a Packard TopCount plate reader. The raw assay data was analysed by non-linear regression analysis parameters and IC50 values were determined using the equation: y=A+((B−A)/(1+((C/x)^D))), where y is % inhibition, A is minimum inhibition, B is maximum inhibition, C is EC50, and D is the slope factor.

[1] = Nephelometry kinetic solubility; type: physicochemical
From the text: If a DMSO solution of a water soluble compound is introduced into aqueous buffer, the mixture remains clear unless the aqueous solubility limit is reached. Above the solubility limit, precipitation occurs and light travelling through the turbid suspension is scattered. The measurement of the intensity of the scattered light is the basis of nephelometric solubility determination.
Selected compounds were screened using a nephelometer to identify the concentration at which turbidity occurs, thereby giving an indication of kinetic solubility. By nephelometry (2% DMSO: 98% phosphate buffered saline pH 7.5) compound [254] was freely soluble at 200 μM (>0.11 mg/mL) which is the highest concentration tested in this assay. In contrast, in the same nephelometry assay, the maximum soluble concentration of prior art Example [I-253] of WO 07/095,188 was determined to be 75 μM (Table 6).

[2] = Pharmacokinetics in fasted conscious CD-1 mice (iv and oral); type: in vivo; conditions: compared to compounds A-G
Method: Preliminary investigations of the pharmacokinetics of selected compounds were carried out in fasted conscious CD-1 mice (25-30 g). Compounds were dosed as 1 mg/kg by intravenous administration or 5-10 mg/kg by oral route. Twenty one male mice per administration route (n=3 mice per time point) received dose solution by single bolus injection in the tail vein or by oral gavage. Blood samples were collected by cardiac puncture at 5, 15, 30, 60, 120, 240 and 360 min following iv administration and at 30, 60, 120, 240, 360, 480 and 1440 min following oral administration. Blood samples were collected into tubes containing the anti-coagulant lithium heparin, mixed and placed promptly on crushed ice. Plasma was derived from whole blood by centrifugation, frozen and stored at −80° C. prior to analysis. Plasma concentrations were determined by liquid chromatography-tandem mass spectrometry in electrospray positive mode (ESI LC/MS/MS) using calibration curves prepared in the appropriate matrix. The lower level of quantification (LLOQ) in all cases was ca. 5 ng/mL. Plasma concentration-time data was processed using the computer program WinNonLin version 5.2 from which areas under the plasma concentration-time curve (AUCall) were calculated by non-compartmental analysis using Model 201 (IV-bolus Input) or Model 200 (Extravascular Input).
FIG. 1 plots the area under the curve (AUC) for plasma concentration vs time for each compound tested. The dosing vehicle across these experiments remained constant (intravenous=citrate buffer pH 3, 1 mL/kg; oral=DMA/PEG400/10 mM Tartrate buffer, pH 4 (1:3:6), 5 ml/kg). FIG. 2 represents the same data in the form of oral bioavailability (% F) for each compound.

[3] = phosphate buffered saline with 2% DMSO, pH 7.5, aqueous buffer, kinetic from dmso stock, 2% DMSO: 98% phosphate buffered saline pH 7.5, highest concentration tested 200 μM, read-out: Nephelometry maximum soluble concentration

Chain of PLK2 (Q9NYY3 whole entry): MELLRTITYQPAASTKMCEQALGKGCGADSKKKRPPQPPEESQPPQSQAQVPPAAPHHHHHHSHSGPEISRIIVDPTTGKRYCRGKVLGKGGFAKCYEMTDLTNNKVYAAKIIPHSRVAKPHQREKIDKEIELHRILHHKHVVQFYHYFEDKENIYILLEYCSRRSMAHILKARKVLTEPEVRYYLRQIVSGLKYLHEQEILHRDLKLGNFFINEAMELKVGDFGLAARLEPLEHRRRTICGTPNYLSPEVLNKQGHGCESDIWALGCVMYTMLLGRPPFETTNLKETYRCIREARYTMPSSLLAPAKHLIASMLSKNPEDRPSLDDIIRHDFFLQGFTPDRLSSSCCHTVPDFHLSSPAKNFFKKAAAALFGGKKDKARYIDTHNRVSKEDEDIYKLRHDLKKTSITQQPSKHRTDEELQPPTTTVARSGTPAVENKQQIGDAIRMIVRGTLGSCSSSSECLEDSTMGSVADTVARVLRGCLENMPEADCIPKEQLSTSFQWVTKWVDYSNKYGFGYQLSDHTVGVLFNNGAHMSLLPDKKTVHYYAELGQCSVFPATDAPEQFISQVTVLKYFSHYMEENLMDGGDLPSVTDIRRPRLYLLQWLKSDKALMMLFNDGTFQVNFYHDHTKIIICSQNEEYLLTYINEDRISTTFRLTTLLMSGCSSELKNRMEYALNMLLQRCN
Chain of human PLK1 (P53350 whole entry): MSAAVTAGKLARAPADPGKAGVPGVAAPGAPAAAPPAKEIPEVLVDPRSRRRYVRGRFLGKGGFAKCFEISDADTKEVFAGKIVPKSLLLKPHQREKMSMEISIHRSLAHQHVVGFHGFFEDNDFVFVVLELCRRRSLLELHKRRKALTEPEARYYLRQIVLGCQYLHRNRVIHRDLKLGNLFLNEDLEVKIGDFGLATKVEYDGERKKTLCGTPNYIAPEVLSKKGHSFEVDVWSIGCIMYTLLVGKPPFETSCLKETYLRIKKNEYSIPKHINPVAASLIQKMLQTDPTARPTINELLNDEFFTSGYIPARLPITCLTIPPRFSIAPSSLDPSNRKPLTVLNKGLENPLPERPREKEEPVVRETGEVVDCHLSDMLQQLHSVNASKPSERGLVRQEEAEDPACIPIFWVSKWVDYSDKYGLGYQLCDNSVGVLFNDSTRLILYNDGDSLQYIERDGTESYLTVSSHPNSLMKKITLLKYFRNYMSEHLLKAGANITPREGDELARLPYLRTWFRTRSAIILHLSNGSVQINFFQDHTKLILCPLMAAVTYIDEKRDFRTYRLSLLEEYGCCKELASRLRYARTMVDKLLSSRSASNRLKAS
Chain of PLK3 (Q9H4B4 whole entry): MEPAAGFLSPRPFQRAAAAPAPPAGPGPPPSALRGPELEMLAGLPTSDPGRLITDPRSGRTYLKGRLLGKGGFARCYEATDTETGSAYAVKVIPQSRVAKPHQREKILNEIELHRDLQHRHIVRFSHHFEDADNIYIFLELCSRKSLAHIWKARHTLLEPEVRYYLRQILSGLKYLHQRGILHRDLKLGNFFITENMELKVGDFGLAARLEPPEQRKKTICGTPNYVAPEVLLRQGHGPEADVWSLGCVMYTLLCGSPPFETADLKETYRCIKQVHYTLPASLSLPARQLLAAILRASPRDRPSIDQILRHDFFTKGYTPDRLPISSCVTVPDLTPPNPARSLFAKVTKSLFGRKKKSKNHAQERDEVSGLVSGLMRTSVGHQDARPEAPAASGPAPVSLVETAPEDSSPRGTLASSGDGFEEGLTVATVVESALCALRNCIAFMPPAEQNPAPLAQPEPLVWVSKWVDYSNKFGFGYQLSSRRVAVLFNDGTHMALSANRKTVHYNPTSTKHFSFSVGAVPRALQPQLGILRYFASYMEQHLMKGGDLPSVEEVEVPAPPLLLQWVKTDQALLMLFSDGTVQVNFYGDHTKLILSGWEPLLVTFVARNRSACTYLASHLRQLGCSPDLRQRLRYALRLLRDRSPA

## COc1cc(C(=O)NC2CN3CCC2CC3)ccc1Nc1ncc2c(n1)N(C1CCCC1)CC1(CCC1)C(=O)N2C (racemic) [Compound 218, (±)-4-(9′-cyclopentyl-5′-methyl-6′-oxo-5′,6′,8′,9′-tetrahydrospiro[cyclobutane-1,7′-pyrimido[4,5-b][1,4]diazepine]-2′-ylamino)-3-methoxy-N-(quinuclidin-3-yl)benzamide]
PLK2; relative to [I-4]
  selectivity for PLK1 versus PLK2 compared to compound [I-4]: 7 fold
PLK2; relative to [I-64]
  selectivity for PLK1 versus PLK2 compared to compound [I-64] of WO 07/095,188: twice as selective
PLK2; relative to [I-76]
  selectivity for PLK1 versus PLK2 compared to compound [I-76]: ~6 fold
PLK2
  PLK2 IC50/PLK1 IC50: 35
PLK3; relative to [I-4]
  selectivity for PLK1 versus PLK3 compared to compound [I-4]: 5 fold
PLK3; relative to [I-64]
  selectivity for PLK1 versus PLK3 compared to compound [I-64]: 5 fold
PLK3; relative to [I-76]
  selectivity for PLK1 versus PLK3 compared to compound [I-76]: ~12 fold
PLK3
  PLK3 IC50/PLK1 IC50: 330

## COc1cc(C(=O)NC2CCN(C)CC2)ccc1Nc1ncc2c(n1)N(C(C)C)CC1(CC1)C(=O)N2C [Compound 99, 4-(9-Isopropyl-5-methyl-6-oxo-6,7,8,9-tetrahydro-5H-spiro[pyrimido[4,5-b] [1,4]diazepin-3,1′-cyclopropane]-2-ylamino)-3-methoxy-N-(1-methyl-piperidin-4-yl)-benzamide]
Human PLK1; Table 2
  IC50: < 1000 nM

## CN1C(=O)CCN(C2CCCC2)c2nc(NCc3ccsc3)ncc21 [Compound 106, 9-Cyclopentyl-5-methyl-2-[(thiophen-3-ylmethyl)-amino]-5,7,8,9-tetrahydro-pyrimido[4,5-b][1,4]di-azepin-6-one]
Human PLK1; Table 2
  IC50: < 1000 nM

## COc1cc(C(=O)NC2c3ccccc3C[C@H]2O)ccc1Nc1ncc2c(n1)N(C1CCCC1)CC1(CC1)C(=O)N2C (stereo partly drawn) [Compound 184, 4-(9-Cyclopentyl-5-methyl-6-oxo-6,7,8,9-tetrahydro-5H-spiro[pyrimido[4,5-b] [1,4]diazepin-3,1′-cyclopropane]-2-ylamino)-N-((1S,2R)-2-hydroxy-indan-1-yl)-3-methoxy-benzamide]
Human PLK1; Table 2
  IC50: < 1000 nM

## COc1cc(C(=O)NCC2CCCCN2C)ccc1Nc1ncc2c(n1)N(C1CCCC1)CCC(=O)N2C (stereo not shown) [Compound 202, 4-(9-Cyclopentyl-5-methyl-6-oxo-6,7,8,9-tetrahydro-5H-pyrimido[4,5-b] [1,4]diazepin-2-ylamino)-3-methoxy-N-(1-methyl-piperidin-2-ylmethyl)-benzamide]
Human PLK1; Table 2
  IC50: < 1000 nM

## CCN(CC)CCNC(=O)c1ccc(Nc2ncc3c(n2)N(CC2CC2)CCC(=O)N3C)c(OC)c1 [Compound 240, 4-(9-Cyclopropyl-methyl-5-methyl-6-oxo-6,7,8,9-tetrahydro-5H-pyrimido[4,5-b] [1,4]diazepin-2-ylamino)-N-(2-diethylamino-ethyl)-3-methoxy-benzamide]
Human PLK1; Table 2
  IC50: < 100 nM

## COc1cc(C(=O)NN2CCN(C)CC2)ccc1Nc1ncc2c(n1)N(C1CCCC1)CC1(CC1)C(=O)N2C [Compound 254, 4-(9′-cyclopentyl-5′-methyl-6′-oxo-5′,6′,8′,9′-tetrahydrospiro[cyclopropane-1,7′-pyrimido[4,5-b][1,4]diazepine]-2′-ylamino)-3-methoxy-N-(4-methylpiperazin-1-yl)benzamide]
[1]; [3]
  solubility: ≥ 200 µM
[1]; phosphate buffered saline with 2% DMSO, pH 7.5, aqueous buffer, kinetic from dmso stock, 2% DMSO: 98% phosphate buffered saline pH 7.5, read-out: Nephelometry soluble concentration
  solubility: > 110 µg/mL

## COc1cc(C(=O)N[C@H]2CC[C@H](N3CCN(CC4CC4)CC3)CC2)ccc1Nc1ncc2c(n1)N(C1CCCC1)CCC(=O)N2C [Compound 378, 4-(9-cyclopentyl-5-methyl-6-oxo-6,7,8,9-tetrahydro-5H-pyrimido[4,5-b][1,4]diazepin-2-ylamino)-N-((trans)-4-(4-(cyclopropylmethyl)piperazin-1-yl)cyclohexyl)-3-methoxybenzamide]
[2]
  oral bioavailability (% F): markedly superior
[2]; iv 1 mg/kg and oral 5-10 mg/kg
  systemic exposure (AUC of plasma concentration vs time): markedly superior

## COc1cc(C(=O)NC2CCC(N3CCCN(Cc4ccccc4)CC3)CC2)ccc1Nc1ncc2c(n1)N(C1CCCC1)CC1(CC1)C(=O)N2C (stereo not shown) [Compound 383, N-(4-(4-benzyl-1,4-diazepan-1-yl)cyclohexyl)-4-(9′-cyclopentyl-5′-methyl-6′-oxo-5′,6′,8′,9′-tetrahydrospiro[cyclopropane-1,7′-pyrimido[4,5-b][1,4]diazepine]-2′-ylamino)-3-methoxybenzamide]
Human PLK1; Table 3, read-out: PLK 1 IC50
  IC50: < 100 nM

## COc1cc(C(=O)N[C@H]2CC[C@@H](N3CCOCC3)CC2)ccc1Nc1ncc2c(n1)N(C1CCCC1)CC1(CC1)C(=O)N2C [Compound 391, 4-(9′-cyclopentyl-5′-methyl-6′-oxo-5′,6′,8′,9′-tetrahydrospiro[cyclopropane-1,7′-pyrimido[4,5-b][1,4]diazepine]-2′-ylamino)-3-methoxy-N-((cis)-4-morpholinocyclohexyl)benzamide]
Human PLK1; Table 3, read-out: PLK 1 IC50
  IC50: 100 to 1000 nM

## COc1cc(C(=O)NN2CCCC2)ccc1Nc1ncc2c(n1)N(C1CCCC1)CC1(CC1)C(=O)N2C [Example [I-253] of WO 07/095188, reference compound]
[1]; [3]
  solubility: 75 µM

## COc1cc(C(=O)NC2CCN(C)CC2)ccc1Nc1ncc2c(n1)N(C1CCCC1)CC1(CCC1)C(=O)N2C [WO 2007/095188 [I-64], reference compound]
PLK2
  PLK2 IC50/PLK1 IC50: 17
PLK3
  PLK3 IC50/PLK1 IC50: 67

## COc1cc(C(=O)NC2CCN(C)CC2)ccc1Nc1ncc2c(n1)N(C1CCCC1)CC1(CC1)C(=O)N2C [WO 2007/095188 [I-76], reference compound]
PLK2
  PLK2 IC50/PLK1 IC50: 6
PLK3
  PLK3 IC50/PLK1 IC50: 26

## COc1cc(C(=O)NN2CCN(C)CC2)ccc1Nc1ncc2c(n1)N(C1CCCC1)CC1(CC1)C(=O)N2C [[254]•HCl, 4-(9′-cyclopentyl-5′-methyl-6′-oxo-5′,6′,8′,9′-tetrahydrospiro[cyclopropane-1,7′-pyrimido[4,5-b][1,4]diazepine]-2′-ylamino)-3-methoxy-N-(4-methylpiperazin-1-yl)benzamide•HCl]
[1]; pH 7.5, read-out: Nephelometry maximum soluble concentration
  solubility: >200 µM
